± gives the expanded uncertainty stated by the source.
Assay: molar heat capacity at saturation pressure
Details: Crystal 2, Small (less than 1 g) adiabatic calorimetry

O[C@@H]1[C@@H](O)[C@@H]2OC[C@@H](O2)[C@H]1O [1,6-anhydro-β-D-glucopyranose]
Details	molar heat capacity [J/K/mol]
195.77 K	122.5 ± 0.7
197.79 K	123.7 ± 0.7
199.82 K	124.9 ± 0.7
201.86 K	126.1 ± 0.7
203.89 K	127.3 ± 0.7
205.92 K	128.5 ± 0.7
207.96 K	129.7 ± 0.7
209.99 K	130.9 ± 0.7
212.02 K	132.1 ± 0.7
214.06 K	133.3 ± 0.7
216.09 K	134.5 ± 0.7
218.13 K	135.7 ± 0.7
220.17 K	137 ± 0.7
222.21 K	138.2 ± 0.8
224.25 K	139.4 ± 0.8
226.29 K	140.7 ± 0.8
228.33 K	141.9 ± 0.8
230.36 K	143.2 ± 0.8
232.4 K	144.5 ± 0.8
234.45 K	145.8 ± 0.8
236.49 K	147 ± 0.8
238.53 K	148.3 ± 0.8
240.57 K	149.6 ± 0.8
242.62 K	150.8 ± 0.8
244.66 K	152.1 ± 0.8
246.7 K	153.4 ± 0.8
248.74 K	154.7 ± 0.8
250.79 K	156.1 ± 0.8
252.83 K	157.3 ± 0.8
254.87 K	158.6 ± 0.8
256.92 K	160 ± 0.8
258.96 K	161.3 ± 0.8
260.23 K	162.2 ± 0.9
261.01 K	162.6 ± 0.9
262.15 K	163.5 ± 0.9
263.05 K	163.9 ± 0.9
264.2 K	164.7 ± 0.9
265.1 K	165.3 ± 0.9
266.25 K	166 ± 0.9
267.14 K	166.6 ± 0.9
268.29 K	167.4 ± 0.9
269.19 K	167.9 ± 0.9
270.34 K	168.8 ± 0.9
271.23 K	169.2 ± 0.9
272.38 K	170.1 ± 0.9
273.28 K	170.7 ± 0.9
274.43 K	171.3 ± 0.9
275.32 K	172 ± 0.9
276.48 K	172.8 ± 0.9
277.37 K	173.3 ± 0.9
278.52 K	174.2 ± 0.9
279.42 K	174.8 ± 0.9
280.57 K	175.4 ± 0.9
281.47 K	176.1 ± 0.9
282.61 K	176.8 ± 1
283.51 K	177.3 ± 1
284.66 K	178.2 ± 1
285.56 K	178.8 ± 1
286.7 K	179.6 ± 1
287.61 K	180.1 ± 1
288.75 K	180.9 ± 1
289.65 K	181.5 ± 1
290.79 K	182.4 ± 1
291.7 K	182.9 ± 1
292.84 K	183.6 ± 1
293.74 K	184.3 ± 1
294.88 K	185.1 ± 1
295.79 K	185.6 ± 1
296.92 K	186.3 ± 1
297.83 K	187 ± 1
298.97 K	187.9 ± 1
299.88 K	188.4 ± 1
301.01 K	189.4 ± 1
301.92 K	189.8 ± 1.1
303.05 K	190.6 ± 1.1
303.97 K	191.3 ± 1.1
305.1 K	192.1 ± 1.1
306.02 K	192.6 ± 1.1
307.14 K	193.5 ± 1.1
308.06 K	194.1 ± 1.1
309.19 K	195.1 ± 1.1
310.11 K	195.5 ± 1.1
311.24 K	196.5 ± 1.1
312.16 K	197 ± 1.1
313.28 K	197.9 ± 1.1
314.21 K	198.4 ± 1.1
315.33 K	199.3 ± 1.1
316.26 K	199.9 ± 1.1
317.38 K	200.9 ± 1.1
318.31 K	201.4 ± 1.1
319.43 K	202.3 ± 1.1
320.36 K	202.9 ± 1.1
321.48 K	203.7 ± 1.1
322.42 K	204.4 ± 1.1
323.53 K	205.4 ± 1.1
324.47 K	206 ± 1.1
325.58 K	206.9 ± 1.1
326.52 K	207.5 ± 1.1
327.64 K	208.4 ± 1.1
328.57 K	209.1 ± 1.1
329.69 K	210.1 ± 1.1
330.63 K	210.6 ± 1.1
331.74 K	211.7 ± 1.1
332.69 K	212.3 ± 1.1
333.8 K	213.3 ± 1.2
334.74 K	214 ± 1.2
335.85 K	215.1 ± 1.2
336.8 K	215.7 ± 1.2
337.91 K	216.8 ± 1.2
338.86 K	217.5 ± 1.2
339.97 K	218.6 ± 1.2
340.91 K	219.3 ± 1.2
342.02 K	220.5 ± 1.2
342.97 K	221.2 ± 1.2
344.08 K	222.5 ± 1.2
345.03 K	223.2 ± 1.2
346.14 K	224.6 ± 1.2
347.09 K	225.4 ± 1.2
348.19 K	226.9 ± 1.2
349.14 K	227.7 ± 1.2
350.25 K	229.3 ± 1.2
351.21 K	230.1 ± 1.2
352.31 K	231.9 ± 1.2
353.27 K	232.8 ± 1.2
354.37 K	234.7 ± 1.2
355.33 K	235.6 ± 1.2
356.43 K	237.6 ± 1.3
357.38 K	238.7 ± 1.3
358.48 K	240.7 ± 1.3
359.44 K	242.1 ± 1.3
360.54 K	244.1 ± 1.3
361.49 K	245.9 ± 1.3
362.59 K	248.2 ± 1.3
363.55 K	249.9 ± 1.3
364.64 K	252.8 ± 1.3
365.6 K	255.1 ± 1.3
366.69 K	258.7 ± 1.3
367.64 K	261.8 ± 1.3
368.73 K	265.9 ± 1.4

— the NIST ThermoML archive (doi:10.1016/j.jct.2015.01.005)
